Data taken from PubChem BioAssay AID256 (DTP/NCI, 2004).
Several values for one entry are separate records, joined by “and”; a condition that tells them apart may be missing. Equal values may be shown once. Inconclusive results and toxic doses are left out.

System: CD2F1 mice, L1210 leukemia ip, survival T/C
Test: NCI In Vivo Anticancer Drug Screen. Data for tumor model L1210 Leukemia (intraperitoneal) in CD2F1 (CDF1) mice
Conditions: higher = longer survival
Method in brief: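 Ratio T/C, where T is the treated-group value and C the vehicle-dosed control value, from mice implanted with a transplantable tumor.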

[1] = endpoint: mean survival time, dose: 100.0 mg/kg/injection, schedule: Q01DX001 (ip), vehicle: saline with Tween-80
[2] = endpoint: mean survival time, dose: 200.0 mg/kg/injection, schedule: Q01DX001 (ip), vehicle: saline with Tween-80
[3] = endpoint: mean survival time, dose: 400.0 mg/kg/injection, schedule: Q01DX001 (ip), vehicle: saline with Tween-80
[4] = endpoint: mean survival time, dose: 50.0 mg/kg/injection, schedule: Q01DX009 (ip), vehicle: saline with Tween-80
[5] = endpoint: mean survival time, dose: 100.0 mg/kg/injection, schedule: Q01DX009 (ip), vehicle: saline with Tween-80
[6] = endpoint: mean survival time, dose: 100.0 mg/kg/injection, schedule: Q04DX003 (ip), vehicle: saline with Tween-80
[7] = endpoint: mean survival time, dose: 200.0 mg/kg/injection, schedule: Q01DX009 (ip), vehicle: saline with Tween-80
[8] = endpoint: mean survival time, dose: 200.0 mg/kg/injection, schedule: Q04DX003 (ip), vehicle: saline with Tween-80
[9] = endpoint: mean survival time, dose: 400.0 mg/kg/injection, schedule: Q01DX009 (ip), vehicle: saline with Tween-80
[10] = endpoint: mean survival time, dose: 100.0 mg/kg/injection, schedule: Q04DX002 (ip), vehicle: saline with Tween-80
[11] = endpoint: mean survival time, dose: 200.0 mg/kg/injection, schedule: Q04DX002 (ip), vehicle: saline with Tween-80
[12] = endpoint: mean survival time, dose: 400.0 mg/kg/injection, schedule: Q04DX002 (ip), vehicle: saline with Tween-80
[13] = endpoint: mean survival time, dose: 400.0 mg/kg/injection, schedule: Q04DX003 (ip), vehicle: saline with Tween-80
[14] = endpoint: mean survival time, dose: 25.0 mg/kg/injection, schedule: Q01DX009 (ip), vehicle: saline
[15] = endpoint: mean survival time, dose: 50.0 mg/kg/injection, schedule: Q01DX009 (ip), vehicle: saline
[16] = endpoint: mean survival time, dose: 100.0 mg/kg/injection, schedule: Q01DX009 (ip), vehicle: saline

Structure (SMILES): C/C=C/CC(C)C(O)C1C(=O)NC(CC)C(=O)N(C)CC(=O)N(C)C(CC(C)C)C(=O)NC(C(C)C)C(=O)N(C)C(CC(C)C)C(=O)NC(C)C(=O)NC(C)C(=O)N(C)C(CC(C)C)C(=O)N(C)C(CC(C)C)C(=O)N(C)C(C(C)C)C(=O)N1C (stereo not given)
- T/C (endpoint: median survival time, dose: 25.0 mg/kg/injection, schedule: Q01DX009 (ip), vehicle: Klucel (hydroxypropylcellulose) (HPC)): 102 % of control
- T/C (endpoint: median survival time, dose: 50.0 mg/kg/injection, schedule: Q01DX009 (ip), vehicle: Klucel (hydroxypropylcellulose) (HPC)): 107 % of control
- T/C (endpoint: median survival time, dose: 100.0 mg/kg/injection, schedule: Q01DX009 (ip), vehicle: Klucel (hydroxypropylcellulose) (HPC)): 106 % of control

Structure (SMILES): Cc1cc([NH-])c([NH-])cc1C.[Cl][Pt+2][Cl]
- T/C (endpoint: mean survival time, dose: 2.5 mg/kg/injection, schedule: Q01DX009 (ip), vehicle: saline with Tween-80): 120 % of control and 123 % of control
- T/C (endpoint: mean survival time, dose: 10.0 mg/kg/injection, schedule: Q01DX009 (ip), vehicle: saline with Tween-80): 150 % of control and 168 % of control
- T/C (endpoint: mean survival time, dose: 10.0 mg/kg/injection, schedule: Q04DX003 (ip), vehicle: water): 121 % of control
- T/C (endpoint: mean survival time, dose: 16.0 mg/kg/injection, schedule: Q04DX003 (ip), vehicle: water): 116 % of control
- T/C (endpoint: mean survival time, dose: 24.0 mg/kg/injection, schedule: Q04DX003 (ip), vehicle: water): 112 % of control

Structure (SMILES): Cc1ccc(C)c(NC(=O)NC2CCCCC2)c1
- T/C [1]: 98 % of control
- T/C [2]: 101 % of control
- T/C [3]: 101 % of control

Structure (SMILES): CC1C2CCC(C2)C1OC(=O)c1ccccc1C(=O)O (stereo not given) (tested in a mixture with another compound)
- T/C [4]: 107 % of control
- T/C [5]: 102 % of control and 93 % of control
- T/C [6]: 95 % of control
- T/C [7]: 95 % of control
- T/C [8]: 95 % of control
- T/C [9]: 94 % of control

Structure (SMILES): CCC[CH2][Sn]1([CH2]CCC)[O]OC(C)(CC)[O]1 (stereo not given)
- T/C (endpoint: mean survival time, dose: 0.78 mg/kg/injection, schedule: Q01DX009 (ip), vehicle: saline with Tween-80): 95 % of control
- T/C (endpoint: mean survival time, dose: 1.56 mg/kg/injection, schedule: Q01DX009 (ip), vehicle: saline with Tween-80): 110 % of control
- T/C (endpoint: mean survival time, dose: 3.13 mg/kg/injection, schedule: Q01DX009 (ip), vehicle: saline with Tween-80): 112 % of control

Structure (SMILES): O=C(CCCN1CCC2(CC1)CC(=O)N(N1CCCC1)C2=O)c1ccc(F)cc1
- T/C [1]: 108 % of control
- T/C [2]: 116 % of control
- T/C [3]: 116 % of control

Structure (SMILES): COc1cc2ccc3c(c2cc1OC)CCc1cn[nH]c1-3
- T/C [10]: 103 % of control
- T/C [11]: 107 % of control
- T/C [12]: 103 % of control

Structure (SMILES): CN(C)CCP(c1ccccc1)c1ccccc1
- T/C (endpoint: mean survival time, dose: 75.0 mg/kg/injection, schedule: Q01DX001 (ip), vehicle: other): 102 % of control

Structure (SMILES): O=C(O)/C=C(/CC(=O)O)C(=O)O
- T/C (endpoint: mean survival time, dose: 100.0 mg/kg/injection, schedule: Q04DX003 (ip), vehicle: saline): 98 % of control
- T/C (endpoint: mean survival time, dose: 200.0 mg/kg/injection, schedule: Q04DX003 (ip), vehicle: saline): 94 % of control

Structure (SMILES): O=C1CC=C2C3CC4N(CCC45c4cc(O)c(O)cc4N1C25)C/C3=C\CBr (stereo not given)
- T/C (endpoint: mean survival time, dose: 75.0 mg/kg/injection, schedule: Q01DX001 (ip), vehicle: saline): 115 % of control

Structure (SMILES): CCOC(=O)c1ccc(NC(=O)Nc2nncs2)cc1
- T/C (endpoint: mean survival time, dose: 6.25 mg/kg/injection, schedule: Q01DX009 (ip), vehicle: distilled water + Tween-80): 101 % of control
- T/C (endpoint: mean survival time, dose: 12.5 mg/kg/injection, schedule: Q01DX009 (ip), vehicle: distilled water + Tween-80): 97 % of control and 103 % of control
- T/C (endpoint: mean survival time, dose: 25.0 mg/kg/injection, schedule: Q01DX009 (ip), vehicle: distilled water + Tween-80): 104 % of control and 107 % of control
- T/C (endpoint: mean survival time, dose: 50.0 mg/kg/injection, schedule: Q01DX009 (ip), vehicle: distilled water + Tween-80): 113 % of control and 115 % of control
- T/C (endpoint: mean survival time, dose: 100.0 mg/kg/injection, schedule: Q01DX009 (ip), vehicle: distilled water + Tween-80): 104 % of control and 112 % of control
- T/C (endpoint: mean survival time, dose: 200.0 mg/kg/injection, schedule: Q01DX009 (ip), vehicle: distilled water + Tween-80): 115 % of control

Structure (SMILES): COC(=O)C(NC(=O)Cc1ccccc1)C(C)(C)S (stereo not given)
- T/C [10]: 102 % of control
- T/C [11]: 102 % of control
- T/C [12]: 102 % of control

Structure (SMILES): COc1ccccc1NC(=S)N(C)C
- T/C [4]: 98 % of control
- T/C [5]: 101 % of control
- T/C [7]: 98 % of control

Structure (SMILES): COc1ccc(OC)c(C2(O)C=C(Cl)C(=O)C=C2Cl)c1 (stereo not given)
- T/C [1]: 101 % of control
- T/C [2]: 97 % of control

Structure (SMILES): CCCCCCCCC1SC1CCCCCCCC(=O)OCCOCCOCC (stereo not given)
- T/C (endpoint: mean survival time, dose: 100.0 mg/kg/injection, schedule: Q04DX003 (ip), vehicle: Klucel (hydroxypropylcellulose) (HPC)): 104 % of control
- T/C (endpoint: mean survival time, dose: 200.0 mg/kg/injection, schedule: Q04DX003 (ip), vehicle: Klucel (hydroxypropylcellulose) (HPC)): 104 % of control
- T/C (endpoint: mean survival time, dose: 400.0 mg/kg/injection, schedule: Q04DX003 (ip), vehicle: Klucel (hydroxypropylcellulose) (HPC)): 102 % of control

Structure (SMILES): Cc1ccc(S(=O)(=O)OC2C3OCC(O3)C(O)C2O)cc1 (stereo not given)
- T/C [6]: 97 % of control
- T/C [8]: 94 % of control
- T/C [13]: 94 % of control

Structure (SMILES): O=c1nc(NCc2ccco2)ccn1C1OC(CO)C(O)C1O (stereo not given)
- T/C (endpoint: median survival time, dose: 12.5 mg/kg/injection, schedule: Q01DX005 (ip), vehicle: water): 98 % of control
- T/C (endpoint: median survival time, dose: 25.0 mg/kg/injection, schedule: Q01DX005 (ip), vehicle: water): 106 % of control
- T/C (endpoint: median survival time, dose: 50.0 mg/kg/injection, schedule: Q01DX005 (ip), vehicle: water): 112 % of control
- T/C (endpoint: median survival time, dose: 100.0 mg/kg/injection, schedule: Q01DX005 (ip), vehicle: water): 112 % of control
- T/C (endpoint: median survival time, dose: 200.0 mg/kg/injection, schedule: Q01DX005 (ip), vehicle: water): 108 % of control

Structure (SMILES): CCCCCCCCCCCCCCN1CCCN(CCCCCCCCCCCCCC)CC1
- T/C (endpoint: mean survival time, dose: 50.0 mg/kg/injection, schedule: Q04DX003 (ip), vehicle: saline with Tween-80): 93 % of control
- T/C [1]: 94 % of control
- T/C [5]: 96 % of control and 101 % of control
- T/C [10]: 96 % of control
- T/C [6]: 93 % of control and 101 % of control
- T/C [2]: 94 % of control
- T/C [7]: 98 % of control and 104 % of control
- T/C [11]: 93 % of control and 97 % of control
- T/C [8]: 98 % of control and 100 % of control
- T/C [3]: 101 % of control
- T/C [9]: 93 % of control and 95 % of control
- T/C [12]: 93 % of control and 96 % of control
- T/C [13]: 98 % of control

Structure (SMILES): Cc1[nH]c(=O)c(C(=O)O)c(C)c1[N+](=O)[O-]
- T/C [6]: 96 % of control
- T/C [8]: 94 % of control
- T/C [13]: 96 % of control

Structure (SMILES): O=S(=O)(O)NC1CCCCC1
- T/C [14]: 96 % of control
- T/C [15]: 95 % of control
- T/C [16]: 91 % of control and 93 % of control

Structure (SMILES): C/C([O-])=C/[S+](C)(=O)N(C)C (stereo not given)
- T/C (endpoint: mean survival time, dose: 25.0 mg/kg/injection, schedule: Q01DX001 (ip), vehicle: saline): 103 % of control
- T/C (endpoint: mean survival time, dose: 50.0 mg/kg/injection, schedule: Q01DX001 (ip), vehicle: saline): 109 % of control
- T/C (endpoint: mean survival time, dose: 100.0 mg/kg/injection, schedule: Q01DX001 (ip), vehicle: saline): 96 % of control

Structure (SMILES): c1ccc2c(CC[n+]3cccc(C4OCCO4)c3)c[nH]c2c1
- T/C (endpoint: mean survival time, dose: 12.5 mg/kg/injection, schedule: Q01DX009 (ip), vehicle: saline): 100 % of control
- T/C (endpoint: mean survival time, dose: 12.5 mg/kg/injection, schedule: Q04DX003 (ip), vehicle: saline): 92 % of control
- T/C [14]: 105 % of control
- T/C (endpoint: mean survival time, dose: 25.0 mg/kg/injection, schedule: Q04DX003 (ip), vehicle: saline): 96 % of control
- T/C [15]: 100 % of control
- T/C (endpoint: mean survival time, dose: 50.0 mg/kg/injection, schedule: Q04DX003 (ip), vehicle: saline): 89 % of control

Structure (SMILES): OCc1c(Cl)c(Cl)c(CO)c(Cl)c1Cl
- T/C [5]: 95 % of control
- T/C [6]: 102 % of control
- T/C [7]: 90 % of control
- T/C [8]: 100 % of control
- T/C [9]: 94 % of control
- T/C [13]: 96 % of control

Structure (SMILES): CN(Cc1ccccc1)C(c1ccccc1)C(O)C(O)(c1ccccc1)c1ccccc1 (stereo not given)
- T/C (endpoint: mean survival time, dose: 100.0 mg/kg/injection, schedule: Q04DX003 (ip), vehicle: acetone): 97 % of control
- T/C (endpoint: mean survival time, dose: 200.0 mg/kg/injection, schedule: Q04DX003 (ip), vehicle: acetone): 97 % of control
- T/C (endpoint: mean survival time, dose: 400.0 mg/kg/injection, schedule: Q04DX003 (ip), vehicle: acetone): 90 % of control

Structure (SMILES): CC1=CC(=O)OC(C)(C)C1
- T/C [16]: 97 % of control
- T/C (endpoint: mean survival time, dose: 200.0 mg/kg/injection, schedule: Q01DX009 (ip), vehicle: saline): 96 % of control
- T/C (endpoint: mean survival time, dose: 400.0 mg/kg/injection, schedule: Q01DX009 (ip), vehicle: saline): 114 % of control
